This is an account of results in ChEMBL document CHEMBL3507680, “University of Dundee, Gates Library screen for HepG2 cell viability”.

The data set can be described thus: Human HepG2 cell viability assay in 384 well format. In kind it is toxicity, cell-based. Further details: dose 125 nL, time 70.5 hour; cytotoxicity at 70.5 h: concentration not given beside the values. The settings on record: HepG2 cells, read-out: Inhibition.
Take `c1cc(N2CCC(c3nnc(Cn4ccnc4)n3C3CC3)CC2)ccn1`: the cytotoxicity at 70.5 h is -6.52%.

As for `CC(C(=O)NC1CCN(C)CC1)n1nc(C(F)(F)F)c(Cl)c1C1CC1` (stereo not drawn), the cytotoxicity at 70.5 h is 11.6%.

Consider `O=C(O)c1ccn(-c2ccc(NC(=O)c3ccccc3Cl)cc2)n1`, for which the cytotoxicity at 70.5 h is 11.9%.

For `CC1(C)CN(C(=O)NCCc2ccn(-c3ccccc3)n2)CCO1`, the cytotoxicity at 70.5 h is -12.4%.

Take `O=C1CN(Cc2nnc(-c3ccc(Br)cc3)o2)CCN1`: the cytotoxicity at 70.5 h was 4.44%.

For the compound `O=C1CC(c2cccnc2)C2(CCN(C(=O)c3ccncc3)CC2)N1` (stereo not drawn), the cytotoxicity at 70.5 h was -1.04%.

As to `CS(=O)(=O)Nc1ccc2c(c1)NC(=O)CC2c1cnn2cccnc12` (stereo not drawn), the cytotoxicity at 70.5 h is 17.5%.

Regarding `CC(NC(=O)N1CCCN(CC(F)F)CC1)c1ccco1` (stereo not drawn), the cytotoxicity at 70.5 h is -8.42%.

As for `CC(C)Cc1noc(CN(C)C[C@]2(O)CCCN3CCCC[C@@H]32)n1`, the cytotoxicity at 70.5 h is -12.8%.

In the case of `Cc1oc(-c2cc(F)cc(F)c2)nc1CN1C[C@@H](C)NC[C@@H]1C`, the cytotoxicity at 70.5 h was -11.7%.

On to `Cc1nnc(CN2CCC3(CCC(=O)N(C4CC4)C3)CC2)o1`, for which the cytotoxicity at 70.5 h stood at 11.6%.

Turning to `CCCN(Cc1cccnc1)Cc1ccc(C2CCCCO2)o1` (stereo not drawn), the cytotoxicity at 70.5 h is -2.3%.

Turning to `CN(CC(=O)N1CCCC1c1noc(C2CC2)n1)S(C)(=O)=O` (stereo not drawn), the cytotoxicity at 70.5 h was -12.3%.

Take `COc1c(C2CCCN2C(=O)c2cc(Cl)c[nH]2)c(C)nn1C` (stereo not drawn): the cytotoxicity at 70.5 h is -0.121%.

With `O=C(CN1CCc2cncnc2C1)NCCOc1ccccc1`, the cytotoxicity at 70.5 h is -5.53%.

As to `O=C(O)c1cc2c(nc1-c1cncnc1)CCN(C1CCOC1)CC2` (stereo not drawn), the cytotoxicity at 70.5 h worked out at 11.3%.

`COc1ccc(CNC(=O)c2ccc(Br)cn2)cc1`: the cytotoxicity at 70.5 h came to 13.3%.

With `Cn1cnc2c1CCN(Cc1nc(-c3ccco3)no1)C2`, the cytotoxicity at 70.5 h was 8.47%.

In the case of `Cc1cc(CNC(=O)NCC(O)c2cccc(F)c2)no1` (stereo not drawn), the cytotoxicity at 70.5 h is -10.8%.

In the case of `Cc1nc(C2CCCN(C(=O)CCn3ccccc3=O)C2)no1` (stereo not drawn), the cytotoxicity at 70.5 h is -3.24%.

`CCCN(CCC)C(=O)c1sc(C)nc1C`: the cytotoxicity at 70.5 h was -7.05%.

Regarding `CSc1nc2cc(C)n(CC(=O)Nc3nccs3)c2c(=O)n1CC(C)C`, the cytotoxicity at 70.5 h was -6.26%.

As to `CCOCC(=O)NC1(c2nc(C)cs2)CCCC1`, the cytotoxicity at 70.5 h was -2.89%.

For `O=C(c1sccc1C1CC1)N1CCN(c2cnccn2)CC1`, the cytotoxicity at 70.5 h was -11.8%.

Turning to `CC(NC(=O)NCc1ccoc1)c1ccc2c(c1)CCC(=O)N2` (stereo not drawn), the cytotoxicity at 70.5 h came to 14.8%.

Regarding `COc1cccc(OCC2CCCN(C(=O)c3cnc(C)nc3O)C2)c1` (stereo not drawn), the cytotoxicity at 70.5 h was -9.18%.

In the case of `Cc1ccc(-c2nc(CN3CCCC(C(=O)N(C)C)C3)cs2)o1` (stereo not drawn), the cytotoxicity at 70.5 h was determined as 1.88%.

In the case of `Cc1nccn1-c1ccc(C(C)NCc2cc[nH]n2)cc1` (stereo not drawn), the cytotoxicity at 70.5 h is -0.399%.

On to `CC(C)c1noc(C(C)N2CCN(Cc3noc(C4CC4)n3)CC2)n1` (stereo not drawn), for which the cytotoxicity at 70.5 h is -10.9%.

For the compound `COc1ccc(C(=O)N2CCN(CCO)CC2)c(F)c1`, the cytotoxicity at 70.5 h is -4.32%.

With `OC(CN1CCN(Cc2cc(F)cc(F)c2)CC1)C1CC1` (stereo not drawn), the cytotoxicity at 70.5 h stood at 28.5%.

Take `CC(OCC1CC1)C(=O)Nc1cccc(C(=O)Nc2ccncc2)c1` (stereo not drawn): the cytotoxicity at 70.5 h is -10.9%.

Consider `COc1cccc(CN2C[C@@H](F)[C@@H](OCc3nc4cnccc4[nH]3)C2)c1`, for which the cytotoxicity at 70.5 h is 2.35%.

With `CCC(NC(=O)Cn1ccc(=O)n(C)c1=O)c1ccccc1OC` (stereo not drawn), the cytotoxicity at 70.5 h is -7%.

With `COc1ccc2c(ccn2CCC(=O)Nc2n[nH]c(C(C)C)n2)c1`, the cytotoxicity at 70.5 h was 24.3%.

Consider `CN(C)c1cccc(C(=O)N2CCCc3cc(OC(F)(F)F)ccc32)c1`, for which the cytotoxicity at 70.5 h is -9.8%.

On to `CC1CCc2nn(CCNC(=O)Cc3cccs3)c(=O)cc2C1` (stereo not drawn), for which the cytotoxicity at 70.5 h is -2.17%.

Take `CCN1CCC2(CC1)c1nc[nH]c1CCN2S(C)(=O)=O`: the cytotoxicity at 70.5 h was -6.08%.

For the compound `COC(=O)c1ccc(/C=C/c2ncc(C(=O)O)s2)cc1`, the cytotoxicity at 70.5 h stood at 3.38%.

`CCNC(=O)CNCc1c(C(C)C)nn(C)c1N1CCOCC1`: the cytotoxicity at 70.5 h was -2.6%.

For the compound `O=C(c1cc[nH]n1)N(Cc1ccc(F)cc1)CC1CC1`, the cytotoxicity at 70.5 h was found to be 0.0679%.

Take `Cc1ccc(S(C)(=O)=O)cc1C(=O)NS(C)(=O)=O`: the cytotoxicity at 70.5 h was -7.69%.

Regarding `CCCc1nnc(NC2CCN(C3CCSCC3)CC2)o1`, the cytotoxicity at 70.5 h was -13.9%.

Turning to `CC(C)c1nc(CN2CCc3onc(-c4cccc(F)c4)c3C2)no1`, the cytotoxicity at 70.5 h was -8.91%.

Turning to `c1cnn(C2CN(c3ncnc4[nH]ccc34)C2)c1`, the cytotoxicity at 70.5 h was -0.76%.

Turning to `Cc1cnn(CC2CCCN2C(=O)c2c(C)noc2C(C)C)c1` (stereo not drawn), the cytotoxicity at 70.5 h is 11.7%.

As for `CCc1c(C)n(CC(=O)OC)c2nc3ccccc3n2c1=O`, the cytotoxicity at 70.5 h is -14.1%.

In the case of `CCOCC1CN(Cc2ccco2)Cc2nccn2C1` (stereo not drawn), the cytotoxicity at 70.5 h was 3.52%.

`Cc1ccc(OC2(C(=O)O)CCN(C(=O)c3ccsc3)CC2)cn1`: the cytotoxicity at 70.5 h is -4.13%.

For `CN(C)Cc1nn(C)c2c1CN(C(=O)c1cccc(C#N)c1)C2`, the cytotoxicity at 70.5 h is -11.5%.

Consider `CN1CC(C(=O)NCCc2ccc3c(c2)OCO3)CC1=O` (stereo not drawn), for which the cytotoxicity at 70.5 h was -8.14%.

As to `CCN1CCN(Cc2csc(C(C)C)n2)CC1`, the cytotoxicity at 70.5 h was -8.86%.

Turning to `O=C(NC1CC1)[C@@H]1CN(Cc2ccc3c(c2)OCO3)C[C@H]2OCC[C@H]21`, the cytotoxicity at 70.5 h is -1.06%.

Regarding `O=C(NCCc1cccs1)[C@]12COC[C@H]1CN(Cc1ccncc1)C2`, the cytotoxicity at 70.5 h was -9.54%.

Consider `O=C(c1nc2c(s1)CCCN2CC1CC1)N1CCCC1`, for which the cytotoxicity at 70.5 h was -0.67%.

With `CCN(Cc1ccc2c(c1)OCO2)S(=O)(=O)N(C)C`, the cytotoxicity at 70.5 h came out at 0.18%.

As for `CCc1noc(C(C)N2CCc3c(ncn3C3CC3)C2)n1` (stereo not drawn), the cytotoxicity at 70.5 h was 28.1%.

For the compound `Cc1nonc1C(=O)N1CC[C@@]2(O)CCN(C3CCCCC3)C[C@H]2C1`, the cytotoxicity at 70.5 h was -9.95%.

In the case of `O=C1NCC2(CCCN(C(=O)c3csc(-c4cccs4)n3)C2)O1` (stereo not drawn), the cytotoxicity at 70.5 h is -14.3%.

As to `O=C(NCc1nnnn1-c1ccccc1)c1ccc(C2CCCO2)s1` (stereo not drawn), the cytotoxicity at 70.5 h was -4.49%.

Turning to `COc1ccc(CN(C)Cc2c(C)noc2C)c(Br)c1OC`, the cytotoxicity at 70.5 h is -8.43%.

On to `CN(Cc1ccccn1)C(=O)C(c1ccccc1)N1CCSCC1` (stereo not drawn), for which the cytotoxicity at 70.5 h is -7.59%.

With `Cc1ccnc(C2CCN(C(=O)c3cnn(C)c3)CC2)n1`, the cytotoxicity at 70.5 h was 23.3%.

For `COCC(C)NC(=O)c1cc(Br)c2c(c1)OCCO2` (stereo not drawn), the cytotoxicity at 70.5 h was -10.9%.

For `CCc1nccn1C1CCCN(C(=O)c2cnn(C)c2C2CC2)C1` (stereo not drawn), the cytotoxicity at 70.5 h was -0.779%.

Regarding `Cc1ccc(O[C@@H]2C[C@H]3CN(c4ncc(F)cn4)CCN3C2)cc1`, the cytotoxicity at 70.5 h was -0.913%.

On to `COc1cc(-n2ccnc2-c2ccc(C(=O)O)s2)ccc1NC(C)=O`, for which the cytotoxicity at 70.5 h was -7.67%.

As to `COCc1nc(NC(C)c2c(C)n[nH]c2C)c2cnn(C)c2n1` (stereo not drawn), the cytotoxicity at 70.5 h is -5.38%.

Take `O=S(=O)(c1cncc(F)c1)N1CCC2(CCCCC2)C1`: the cytotoxicity at 70.5 h is -13%.

Consider `Cc1nc(COc2ccc(OCC(N)=O)cc2)oc1C`, for which the cytotoxicity at 70.5 h is -8.19%.

As for `CCN(C)S(=O)(=O)N1CCCC(CO)(CC=C(C)C)C1` (stereo not drawn), the cytotoxicity at 70.5 h is -2.99%.

As to `O=C(c1cccnc1)N1CCCC(c2cc(C(F)F)n3ncnc3n2)C1` (stereo not drawn), the cytotoxicity at 70.5 h was -13.8%.

For the compound `COc1ccc(C2SC(C)=Nc3c2c(=O)[nH]n3C2CCCC2)cc1O` (stereo not drawn), the cytotoxicity at 70.5 h was -18.9%.

On to `Cc1nc(CN2C(=O)CC3(CCN(C(N)=O)CC3)c3ccccc32)cs1`, for which the cytotoxicity at 70.5 h is -2.82%.

Turning to `CNC(=O)CS(=O)(=O)C1CCN(S(=O)(=O)c2ccccc2Cl)CC1`, the cytotoxicity at 70.5 h turned out to be 23.7%.

In the case of `CCc1cc(N2CCC(NCCc3ccc(C)o3)CC2)nc(C)n1`, the cytotoxicity at 70.5 h was -16.4%.

As for `O=C(Cc1cccnc1)N1CCCC2(CCN(CC3CCOCC3)C2)C1` (stereo not drawn), the cytotoxicity at 70.5 h was found to be 1.37%.

On to `Cc1ccc(C)c(CN2C[C@H]3CC[C@@H]2CN(C(=O)c2cccnc2)C3)c1`, for which the cytotoxicity at 70.5 h is 1.01%.

Consider `CC(C)Oc1ccc(CN2CCC(c3n[nH]c4ncccc34)CC2)cc1`, for which the cytotoxicity at 70.5 h amounted to 21.4%.

`CSc1ccccc1C(=O)N1C[C@H]2CC[C@@H]1CN(C(=O)N(C)C)C2`: the cytotoxicity at 70.5 h was -8.08%.

Take `COc1ccc2c(c1)C(NCCc1c(C)noc1C)CCCO2` (stereo not drawn): the cytotoxicity at 70.5 h is 29.3%.

For the compound `CCN(CC)S(=O)(=O)N1CC[C@H](c2ccccc2)[C@H]2NCCCC[C@H]21`, the cytotoxicity at 70.5 h is -3.25%.

For `Cc1csc(C2(NC(=O)CCNC(=O)C(C)(C)C)CCCC2)n1`, the cytotoxicity at 70.5 h worked out at 0.031%.

`Cn1nccc1CNC(=O)CCn1nc(C(F)(F)F)c(Cl)c1C1CC1`: the cytotoxicity at 70.5 h is -3.15%.

As to `CNC(=O)C1CN(c2ccc(F)cc2)CCN1` (stereo not drawn), the cytotoxicity at 70.5 h was -1.89%.

For `CC(C)c1nc(C2CCCN2CC(=O)N2CCc3ccccc32)no1` (stereo not drawn), the cytotoxicity at 70.5 h is -3.85%.

`CCCn1nc(C)c(CN(CCN(C)C)Cc2ccccn2)c1C`: the cytotoxicity at 70.5 h turned out to be 12.9%.

For the compound `Cc1occc1C(=O)NCC(O)c1ccc(Cl)s1` (stereo not drawn), the cytotoxicity at 70.5 h turned out to be 3.32%.

For the compound `COc1ccc(C(=O)N2CCCC(CNS(C)(=O)=O)C2)cc1F` (stereo not drawn), the cytotoxicity at 70.5 h was -10.9%.

Take `Cc1nc(N2CCCC2)nc2c1CN(C(=O)c1ccco1)CC2`: the cytotoxicity at 70.5 h is -4.28%.

`CCNC(=O)[C@@H]1C[C@@H](N)CN1C(=O)c1cc2ccccc2[nH]1`: the cytotoxicity at 70.5 h was -1.64%.

For `O=C(CCc1nccs1)N1CCN(c2ccccc2F)CC1`, the cytotoxicity at 70.5 h turned out to be 34.9%.

For `Cc1cc(CN2CCCC2)cc(Oc2ccc(C(F)(F)F)cn2)c1`, the cytotoxicity at 70.5 h was -0.531%.

For `CC(O)CN1CCC(CNCc2ccccc2Br)CC1` (stereo not drawn), the cytotoxicity at 70.5 h was -1.26%.

For `O=C(NCC1CC1)[C@H]1C[C@@H]2CN(C(=O)NCC3CCCCC3)C[C@H]1O2`, the cytotoxicity at 70.5 h came to 30.6%.

As for `CNC(=O)[C@H]1C[C@@H]2CN(C(=O)c3ccsc3)C[C@@H]2N1S(C)(=O)=O`, the cytotoxicity at 70.5 h is -10.8%.

`Cc1cc(C)nc(N2CCC(c3cccc(CCC(=O)O)n3)CC2)n1`: the cytotoxicity at 70.5 h is -9.41%.

On to `CC(=O)c1ccc(-c2cc(C(F)(F)F)cc(N(C)C)n2)cc1`, for which the cytotoxicity at 70.5 h was -7.82%.
